Measured values as given in US20230381248A1, “METHOD FOR TREATING AND/OR PREVENTING ATOPY AND ALLERGIC DISEASES BY USING BACTERIA OR COMPOSITIONS HAVING 7 ALPHA-DEHYDROXYLASE ACTIVITY, AND/OR BILE ACID RECEPTORS FXR AND/OR TGR5 AGONISTS” (NATIONAL TAIWAN UNIVERSITY HOSPITAL, priority 2022, published 2023).

Legend:
[1] = tested on: PMN-MDSC and regulatory T-cell (Treg); experiment: Induction of immune-regulatory cells by FxR and TGR5 agonist pre-treatment in the OVA allergic airway disease model, flow cytometry; format: in vivo, BALB/c mice; conditions: oral gavage 30 mg/kg/day twice a week from 3 w/o; BALF, PB, BM, Spl after aerosol OVA challenge; vs vehicle control
Experimental: (§1) The model uses ovalbumin (OVA) as the allergen to induce allergic airway inflammation of the mice. Briefly, allergen sensitization was induced in 5 w/o BALB/c mice by two intraperitoneal injection (i.p.) of 50 μg ovalbumin (OVA) plus 2 mg alum at 10-14-day interval. One week after the second OVA i.p. sensitization, 30-min aerosol 5% OVA inhalation challenge (ih) was performed for 3 consecutive days.
(§2) OVA-induced allergic airway disease was induced in 5 w/o BALB/c mice according to the protocol as depicted. […] Age- and sex-matched control mice were given the vehicle containing methyl cellulose.
The effects of FXR and TGR5 signaling in inducing both innate and adaptive immune-regulatory cells (i.e., PMN-MDSC and Treg) are investigated in this example. Mice were pre-treated by FxR and TGR5 agonists, followed by allergen sensitization and induction of allergic airway disease as depicted in FIG. 6. […] BALF represents bronchoalveolar lavage fluid, PB represents peripheral blood, BM represents bone marrow, Spl represents spleen. […] FoxP3 is an intracellular specific marker of regulatory T-cell and acts as a major regulator in the development and function of regulatory T-cell. **P<0.01; ***P<0.001, comparison was made by analysis of variance (ANOVA).

[2] = tested on: OVA-induced allergic airway disease; experiment: Severity of OVA-induced allergic airway disease after FxR and TGR5 agonist pre-treatment; format: in vivo, BALB/c mice; conditions: oral gavage 30 mg/kg/day twice a week from 3 w/o
Experimental: as §1, §2
The effects of FxR and TGR5 signaling in alleviating the severity of OVA-induced allergic airway disease are investigated in this example Mice were pre-treated by FxR and TGR5 agonists, followed by sensitization and asthmatic response of mice as depicted in FIG. 6. One day after the 3rd aerosol OVA challenge, sera and bronchoalveolar lavage fluids (BALF) were collected and parameters reflecting the severity of allergic inflammation were tested. […] Neg Ctrl represents healthy control. N=12-14 mice/group.

CC[C@H]1[C@@H](O)[C@@H]2[C@H](C[C@H](O)[C@]3(C)[C@@H]([C@H](C)C[C@H](C)C(=O)O)CC[C@@H]23)[C@@]2(C)CC[C@@H](O)C[C@@H]12 [TGR5 agonist, 6-EMCA]
expansion of adaptive immune-regulatory cell, Treg [1]: can induce the expansion | expansion of innate immune-regulatory cells, PMN-MDSC [1]: can induce the expansion | four parameters indicative of allergic airway disease severity (seral OVA-specific IgE, BALF leukocyte counts, BALF IL-5, airway resistance to methacholine) ([2]; one day after 3rd aerosol OVA challenge): mitigated | airway disease severity ([2]; vs control mice receiving vehicle, N=12-14 mice/group): significantly milder airway disease
